In publication PMC5516229 (2017):
One block for each compound: values may come before it.

Columns and labels:
[1] = system: G1 (DNA, G4) AGGGTTAGGGTTAGGGTTAGGG; assay: UV/Vis titration; details: 10 mM Tris-HCl pH 7.04, 20 μM complex, apparent, per base pair
[2] = system: G2T1 (DNA, G4) AGGGTTAGGGTTAGGGTTAGGGTTAGGGTTAGGGTTAGGGTTAGGG; assay: UV/Vis titration; details: 10 mM Tris-HCl pH 7.04, 20 μM complex, apparent, per base pair
[3] = system: G1 (DNA, G4) AGGGTTAGGGTTAGGGTTAGGG; assay: CD melting, 295 nm; details: 100 mM NaCl, 10 mM Tris-HCl pH 7.04
[4] = system: G2T1 (DNA, G4) AGGGTTAGGGTTAGGGTTAGGGTTAGGGTTAGGGTTAGGGTTAGGG; assay: CD melting, 295 nm; details: 100 mM NaCl, 10 mM Tris-HCl pH 7.04, 2.5 μM DNA
[5] = system: G2T2 (DNA, G4) AGGGTTAGGGTTAGGGTTAGGGTTATTAGGGTTAGGGTTAGGGTTAGGG; assay: CD melting, 295 nm; details: 100 mM NaCl, 10 mM Tris-HCl pH 7.04
[6] = system: G2T4 (DNA, G4) AGGGTTAGGGTTAGGGTTAGGGTTATTATTATTAGGGTTAGGGTTAGGGTTAGGG; assay: CD melting, 295 nm; details: 100 mM NaCl, 10 mM Tris-HCl pH 7.04
[7] = system: G2T6 (DNA, G4) AGGGTTAGGGTTAGGGTTAGGGTTATTATTATTATTATTAGGGTTAGGGTTAGGGTTAGGG; assay: CD melting, 295 nm; details: 100 mM NaCl, 10 mM Tris-HCl pH 7.04
[8] = system: G2T1 (DNA, G4) AGGGTTAGGGTTAGGGTTAGGGTTAGGGTTAGGGTTAGGGTTAGGG; assay: native gel electrophoresis; details: 100 mM NaCl, 10 mM Tris-HCl pH 7.04, 8 μM DNA
[9] = system: Ap7 (DNA, G4, 2-aminopurine at 7) AGGGTTAGGGTTAGGGTTAGGGTTAGGGTTAGGGTTAGGGTTAGGG; assay: 2-aminopurine fluorescence quenching; details: 100 mM NaCl; 10 mM Tris-HCl pH 7.04, 25 °C; 5 μM DNA
[10] = system: Ap13 (DNA, G4, 2-aminopurine at 13) AGGGTTAGGGTTAGGGTTAGGGTTAGGGTTAGGGTTAGGGTTAGGG; assay: 2-aminopurine fluorescence quenching; details: 100 mM NaCl; 10 mM Tris-HCl pH 7.04, 25 °C; 5 μM DNA
[11] = system: Ap37 (DNA, G4, 2-aminopurine at 37) AGGGTTAGGGTTAGGGTTAGGGTTAGGGTTAGGGTTAGGGTTAGGG; assay: 2-aminopurine fluorescence quenching; details: 100 mM NaCl; 10 mM Tris-HCl pH 7.04, 25 °C; 5 μM DNA
[12] = system: Ap7+Ap31 (DNA, G4, 2-aminopurine at 7 and 31) AGGGTTAGGGTTAGGGTTAGGGTTAGGGTTAGGGTTAGGGTTAGGG; assay: 2-aminopurine fluorescence quenching; details: 100 mM NaCl; 10 mM Tris-HCl pH 7.04, 25 °C; 5 μM DNA
[13] = system: Ap13+Ap37 (DNA, G4, 2-aminopurine at 13 and 37) AGGGTTAGGGTTAGGGTTAGGGTTAGGGTTAGGGTTAGGGTTAGGG; assay: 2-aminopurine fluorescence quenching; details: 100 mM NaCl; 10 mM Tris-HCl pH 7.04, 25 °C; 5 μM DNA
[14] = system: Ap31 (DNA, G4, 2-aminopurine at 31) AGGGTTAGGGTTAGGGTTAGGGTTAGGGTTAGGGTTAGGGTTAGGG; assay: 2-aminopurine fluorescence quenching and Job's plot; details: 100 mM NaCl; 10 mM Tris-HCl pH 7.04, 25 °C; Job's plot at 3 μM total
[15] = system: G1 (DNA, G4) AGGGTTAGGGTTAGGGTTAGGG; assay: native gel electrophoresis; details: 100 mM NaCl; 10 mM Tris-HCl pH 7.04; 16 μM DNA, 32 μM complex
[16] = 2:1 complex per G-quadruplex unit (4:1 per strand)

Ka ([1]; 100 mM KCl, 370 nm): 2.19±0.32×10^6 M^-1 | Ka ([1]; 100 mM NaCl, 370 nm): 1.05±0.20×10^6 M^−1 | Ka ([2]; 100 mM KCl, 370 nm): 1.37±0.25×10^7 M^-1 | Ka ([2]; 100 mM NaCl, 370 nm): 3.15±0.42×10^7 M^−1 | Δ T m ([3]; complex:DNA 1:1): 2.0 °C | Δ T m ([4]; 5 μM complex (2:1)): 14.1 °C | Δ T m ([5]; complex:DNA 2:1): 11.9 °C | Δ T m ([6]; complex:DNA 2:1): 8.1 °C | Δ T m ([7]; complex:DNA 2:1): 6.3 °C | binding ([8]; 16 μM complex): yes | binding [9]: yes | binding [10]: yes | binding [11]: yes | binding [12]: yes | binding [13]: yes | binding [14]: yes
Compound: [Ni+2].[Ni+2].[O-]c1cc(OCCN2CCCCC2)ccc1C=Nc1ccc(OCCOCCOCCOCCOc2ccc(N=Cc3ccc(OCCN4CCCCC4)cc3[O-])c(N=Cc3ccc(OCCN4CCCCC4)cc3[O-])c2)cc1N=Cc1ccc(OCCN2CCCCC2)cc1[O-]

Ka ([1]; 100 mM KCl, 310 nm): 2.39±0.35×10^6 M^-1 | Ka ([1]; 100 mM NaCl, 370 nm): 1.27±0.24×10^6 M^−1 | Ka ([2]; 100 mM KCl, 310 nm): 1.19±0.16×10^6 M^-1 | Ka ([2]; 100 mM NaCl, 310 nm): 1.08±0.24×10^6 M^−1 | Δ T m ([4]; 5 μM complex (2:1)): 7.7 °C
Compound: [Ni+2].[Ni+2].[O-]c1cc(OCCN2CCCCC2)ccc1C=Nc1ccc(OCCOCCOc2ccc(N=Cc3ccc(OCCN4CCCCC4)cc3[O-])c(N=Cc3ccc(OCCN4CCCCC4)cc3[O-])c2)cc1N=Cc1ccc(OCCN2CCCCC2)cc1[O-]

Ka ([1]; 100 mM KCl, 370 nm): 1.15±0.18×10^7 M^-1 | Ka ([1]; 100 mM NaCl, 370 nm): 4.62±0.64×10^6 M^−1 | Ka ([2]; 100 mM KCl, 310 nm): 1.50±0.22×10^7 M^-1 | Ka ([2]; 100 mM NaCl, 310 nm): 2.34±0.32×10^7 M^−1 | Δ T m ([3]; complex:DNA 2:1): 13.4 °C | Δ T m ([4]; 10 μM complex (4:1)): 20.8 °C | Δ T m [5, 16]: 25.1 °C | Δ T m [6, 16]: 25.5 °C | Δ T m [7, 16]: 23.5 °C | binding [15]: yes | binding ([8]; 32 μM complex): yes
Compound: [Ni+2].[O-]c1cc(OCCN2CCCCC2)ccc1C=Nc1ccccc1N=Cc1ccc(OCCN2CCCCC2)cc1[O-]

Ka ([1]; 100 mM KCl, 310 nm): 3.53±0.33×10^6 M^-1 | Ka ([1]; 100 mM NaCl, 310 nm): 8.30±0.75×10^5 M^−1 | Ka ([2]; 100 mM KCl, 310 nm): 2.52±0.24×10^6 M^-1 | Ka ([2]; 100 mM NaCl, 310 nm): 2.06±0.40×10^6 M^−1 | Δ T m ([4]; 5 μM complex (2:1)): 8.4 °C
Compound: [Ni+2].[Ni+2].[O-]c1cc(OCCN2CCCCC2)ccc1C=Nc1ccc(OCCOCCOCCOc2ccc(N=Cc3ccc(OCCN4CCCCC4)cc3[O-])c(N=Cc3ccc(OCCN4CCCCC4)cc3[O-])c2)cc1N=Cc1ccc(OCCN2CCCCC2)cc1[O-]
